# Test results: patent publication US7670967B2, “Dispersible alcohol/cleaning wipes via topical or wet-end application of acrylamide or vinylamide/amine polymers” (Kimberly-Clark Worldwide, Inc., priority 2004, dated 2010)
# Assay: Solubility parameter (Hildebrand parameter) values for selected solvents and polyacrylamide
# Conditions: solvent with polyacrylamide homopolymer, δ 21
# Excerpt: Determination of a suitable lower level alcohol, glycol, ketone, or mixtures thereof may be conducted using the solubility. The solubility of an amorphous polymer in a given solvent is governed by the Gibbs free energy of mixing given by Equation (1): ΔGm=ΔHm−TΔSm (1 ) ΔGm is the free energy change of the system upon mixing. ΔHm and ΔSm are the enthalpy and entropy change upon mixing, respectively, and T is the absolute temperature. When the free energy of mixing is less than zero (ΔGm<0) for a given polymer and solvent (or solvent mixture thereof), a single-phase system is obtained and mixing occurs spontaneously.
# Solubility parameters, originally developed to describe enthalpy of mixing with simple nonpolar solvents, have been extended to describe the interactions of polymers and polar solvent. The enthalpy of mixing of such systems is expressed in a form like Equation (2):
# [formula] […]
# The units of δ may be difficult to rationalize. They are generally expressed as units of MPa½ or (cal/cm^3)^1/2. One simple way to understand these units is to note that Equation (4) calls for a solution in terms of a quantity of energy. It can be readily seen that substitution of δ values in terms of (cal/cm^3)^1/2 or MPa½ into Equation (4) results in a quantity of energy in terms of calories or joules, respectively, after unit cancellation (1 MPa=1 kJ/m^3). […]
row,Compound,(δ1 − δ2)^2 PAM (cohesive energy difference parameter)
1,CC(C)=O [Acetone],123.2
2,n-Propyl alcohol,82.8
